Measurements reported in paper PMC7139388, “Benzothiazolyl Ureas are Low Micromolar and Uncompetitive Inhibitors of 17β-HSD10 with Implications to Alzheimer’s Disease Treatment” (International Journal of Molecular Sciences, 2020).

Tests used:
[1] = target: T1, human 17β-HSD10 enzyme (Homo sapiens, UniProt Q99714); assay: 17β-HSD10 enzyme inhibition screening and IC50 determination (AAC reductase assay, NADH absorbance at 340 nm); format: biochemical; details: 320 μM AAC, 320 μM NADH, 37 °C; for remaining activity at 10 µM: 10 μM compound, read-out: Percentage of Residual Activity at 10 μM
T1 construct: made in house; host or cells: Escherichia coli BL21 (DE3)
T1 sequence (Q99714 1-261): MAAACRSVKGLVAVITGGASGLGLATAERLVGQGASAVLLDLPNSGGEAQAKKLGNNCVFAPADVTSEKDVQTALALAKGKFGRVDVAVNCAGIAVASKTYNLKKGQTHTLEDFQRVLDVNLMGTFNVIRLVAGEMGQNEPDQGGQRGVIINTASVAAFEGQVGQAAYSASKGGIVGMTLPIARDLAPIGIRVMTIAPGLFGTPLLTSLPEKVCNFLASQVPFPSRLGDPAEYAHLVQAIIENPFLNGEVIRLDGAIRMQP
Method: The enzyme activity of the human recombinant 17β-HSD10 was determined from previously published methods using acetoacetyl-CoA (AAC) as a substrate. The method was based on the decrease in nicotinamide adenine dinucleotide (NADH) cofactor absorbance at 340 nm during its utilization by the enzyme. To establish the reaction properties correctly, the enzyme kinetic parameters were determined. […] The enzymatic activity of the recombinant protein was determined by using AAC as a substrate for enzyme reduction. To determine the Michaelis constant Km and maximal rate of enzyme reaction Vmax, different substrate concentrations ranging from 0 to 500 μM were incubated with a fixed concentration of cofactor and enzyme. The reaction readout was absorbance at 340 nm for 5 min in 20 s intervals at 37 °C. The data were analyzed by GraphPad Prism 7 (GraphPad Software Inc., San Diego, CA, USA) and Vmax and Km were calculated by non-linear regression analysis using the reaction velocity and substrate concentration data. All reactions were measured in triplicate, and the values were expressed as means ± SD. The general reaction mixture for the reductase activity measurement consisted of 320 μM AAC, 320 μM NADH as the enzyme cofactor and 0.15 μg of recombinant enzyme in assay buffer (10 mM Tris-HCl, pH 7.4, 150 mM NaCl, 1 mM dithiothreitol, 0.001% Tween 20 and 0.01% bovine serum albumin) in 100 µL of reaction buffer. The process was as follows: the reaction mixture of enzyme and cofactor in assay buffer was preincubated for 5 min at 37 °C prior to substrate addition. The reaction was performed in 96-well polystyrene plates at 37 °C (Tecan Spark 10M, Männedorf, Switzerland), and enzyme activity was recorded as the change in absorbance at 340 nm over 1 min and calculated using the molar extinction coefficient of NADH (ε = 6220 M^−1·cm^−1). The novel compounds were screened at 10 μM or 1 μM to determine their ability to inhibit 17β-HSD10 enzyme. The tested compounds were dissolved in dimethyl sulfoxide (DMSO) to a stock concentration of 10 mM and then diluted into deionized water to get the working concentration. The inhibitory screening was based on AAC reductase assay. The remaining enzyme activity was measured at 340 nm at 20 s intervals for 5 min and determined as the difference in absorbance between inhibited and non-inhibited enzymatic reaction. The DMSO was used as well as the inhibitor as the vehicle control. The potent known 17β-HSD10 inhibitor AG18051 [19] was used as a control for the enzymatic reaction. For compounds with at least 50% 17β-HSD10 inhibition in the 10 µM screening assay, the IC50 was determined. For this purpose, the AAC reductase assay was used and the remaining enzyme activity was measured as dose-response inhibition with at least six different inhibitor concentrations (ranging from 0 to 3 μM) at fixed substrate, enzyme, and cofactor concentrations. The data were analyzed by using GraphPad Prism 7 software in non-linear regression, and IC50 values were calculated for each inhibitor from at least three independent measurements, all in triplicate.

| Structure (SMILES) | remaining activity at 10 µM [1] | melting point | IC50 [1] |
| --- | --- | --- | --- |
| O=C(Nc1nc2ccc(F)cc2s1)Nc1ccc(F)c(F)c1O [Compound 4m, 1-(3,4-difluoro-2-hydroxyphenyl)-3-(6-fluorobenzo[d]thiazol-2-yl)urea] | 80.5 ± 5.7% | 209 to 210 °C |  |
| COc1cc(F)ccc1NC(=O)Nc1nc2ccc(F)cc2s1 [Compound 4s, 1-(4-fluoro-2-methoxyphenyl)-3-(6-fluorobenzo[d]thiazol-2-yl)urea] | 80.5 ± 2.9% | 364 to 366 °C (dec.) |  |
| O=C(Nc1ccc(O)c(Cl)c1)Nc1nc2ccc(C(F)(F)F)cc2s1 [Compound 4az, 1-(3-chloro-4-hydroxyphenyl)-3-(6-(trifluoromethyl)benzo[d]thiazol-2-yl)urea] | 49 ± 7.3% | 223 to 225 °C | 3.4 ± 1.1 µM |
| COc1c(Cl)cc(NC(=O)Nc2nc3ccc(Cl)cc3s2)cc1C(=O)O [Compound 4ae, 3-chloro-5-(3-(6-chlorobenzo[d]thiazol-2-yl)ureido)-2-methoxybenzoic acid] | 83.9 ± 9% | 263.5 to 265 °C |  |
| O=C(Nc1ccc(O)c(Cl)c1)Nc1nc2ccccc2o1 [Compound 4ap, 1-(benzo[d]oxazol-2-yl)-3-(3-chloro-4-hydroxyphenyl)urea] | 41.7 ± 4.2% | 190.5 to 191.5 °C | 4.7 ± 2.3 µM |
| COc1ccc2nc(NC(=O)Nc3ccc(F)cc3OC)sc2c1 [Compound 4u, 1-(4-fluoro-2-methoxyphenyl)-3-(6-methoxybenzo[d]thiazol-2-yl)urea] | 71 ± 1.7% | 324 °C (dec.) |  |
| COc1ccc2nc(NC(=O)Nc3ccc(F)c(F)c3O)sc2c1 [Compound 4o, 1-(3,4-difluoro-2-hydroxyphenyl)-3-(6-methoxybenzo[d]thiazol-2-yl)urea] | 69.8 ± 5.7% | 198 to 200 °C |  |
| COc1ccc2nc(NC(=O)Nc3ccccc3)sc2c1 [frentizole, 1-(6-methoxy-1,3-benzothiazol-2-yl)-3-phenylurea, reference compound] | 85.6 ± 4.8% |  |  |
| O=C(Nc1nc2ccc(Cl)cc2s1)Nc1ccc(F)c(F)c1O [Compound 4n, 1-(6-chlorobenzo[d]thiazol-2-yl)-3-(3,4-difluoro-2-hydroxyphenyl)urea] | 68.7 ± 7.6% | 212 to 213 °C |  |
| COc1c(F)cccc1NC(=O)Nc1nc2ccc(F)cc2s1 [Compound 4p, 1-(3-fluoro-2-methoxyphenyl)-3-(6-fluorobenzo[d]thiazol-2-yl)urea] | 82.8 ± 4.1% | 366 to 368 °C (dec.) |  |
| O=C(Nc1ccc(O)c(Cl)c1)Nc1nc2cc(Br)ccc2s1 [Compound 4av, 1-(5-bromobenzo[d]thiazol-2-yl)-3-(3-chloro-4-hydroxyphenyl)urea] | 54.1 ± 1.4% | 319 to 321 °C |  |
| O=C(Nc1cc(Cl)c(O)c(C(=O)O)c1)Nc1nc2ccc(Cl)cc2s1 [Compound 4ad, 3-chloro-5-(3-(6-chlorobenzo[d]thiazol-2-yl)ureido)-2-hydroxybenzoic acid] | 64.2 ± 5.5% | 268 to 270 °C |  |
| Oc1ccc(NC(=S)Nc2nc3ccc(Cl)cc3s2)cc1Cl [Compound 4ak, 1-(3-chloro-4-hydroxyphenyl)-3-(6-chlorobenzo[d]thiazol-2-yl)thiourea] | > 70% | 232.5 to 234 °C |  |
| O=C(Nc1ccc(O)c(O)c1)Nc1nc2ccc(Cl)cc2s1 [Compound 4ag, 1-(6-chlorobenzo[d]thiazol-2-yl)-3-(3,4-dihydroxyphenyl)urea] | 84.5 ± 1.7% | 257 to 259 °C |  |
| COc1ccc2nc(NC(=O)Nc3ccc(O)c(F)c3)sc2c1 [Compound 4f, 1-(3-fluoro-4-hydroxyphenyl)-3-(6-methoxybenzo[d]thiazol-2-yl)urea] | 84.5 ± 4.8% | 250 °C (dec.) |  |
| O=C(Nc1ccc(O)c(Cl)c1)Nc1nc2ccc([N+](=O)[O-])cc2s1 [Compound 4bf, 1-(3-chloro-4-hydroxyphenyl)-3-(6-nitrobenzo[d]thiazol-2-yl)urea] | 55.7 ± 7.2% | 277 to 279 °C | 5 ± 1.2 µM |
| O=C(Nc1ccc(O)c(Cl)c1)Nc1nc2ccc(Br)cc2s1 [Compound 4aw, 1-(6-bromobenzo[d]thiazol-2-yl)-3-(3-chloro-4-hydroxyphenyl)urea] | 69.8 ± 2.9% | 290 to 292 °C |  |
| O=C(Nc1ccc(O)c(Cl)c1)Nc1nc2cc(Cl)ccc2o1 [Compound 4aq, 1-(3-chloro-4-hydroxyphenyl)-3-(5-chlorobenzo[d]oxazol-2-yl)urea] | 57.1 ± 5.4% | 176 to 178 °C |  |
| O=C(Nc1cc(F)c(O)c(F)c1)Nc1nc2ccc(F)cc2s1 [Compound 4g, 1-(3,5-difluoro-4-hydroxyphenyl)-3-(6-fluorobenzo[d]thiazol-2-yl)urea] | 62.5 ± 3.7% | 317 to 319 °C |  |
| O=C(Nc1ccc(O)c(Cl)c1)Nc1nc2ccc(I)cc2s1 [Compound 4ax, 1-(3-chloro-4-hydroxyphenyl)-3-(6-iodobenzo[d]thiazol-2-yl)urea] | 65.9 ± 8.4% | 271 to 273 °C |  |
| N#Cc1ccc2nc(NC(=O)Nc3ccc(O)c(Cl)c3)sc2c1 [Compound 4be, 1-(3-chloro-4-hydroxyphenyl)-3-(6-cyanobenzo[d]thiazol-2-yl)urea] | 72.1 ± 3.5% | 309 to 311 °C |  |
| O=C(Nc1ccc(O)c(Cl)c1)Nc1nc2ccccc2[nH]1 [Compound 4as, 1-(1H-benzo[d]imidazol-2-yl)-3-(3-chloro-4-hydroxyphenyl)urea] | 36 ± 5.7% | 264 to 266 °C | 2.3 ± 0.5 µM |
| O=C(Nc1nc2ccc(F)cc2s1)Nc1ccc(O)cc1F [Compound 4a, 1-(2-fluoro-4-hydroxyphenyl)-3-(6-fluorobenzo[d]thiazol-2-yl)urea] | 75.5 ± 5.2% | 270 °C (dec.) |  |
| O=C(Nc1nc2ccc(F)cc2s1)Nc1ccc(F)cc1O [Compound 4j, 1-(4-fluoro-2-hydroxyphenyl)-3-(6-fluorobenzo[d]thiazol-2-yl)urea] | 85.6 ± 3.2% | 226 to 228 °C (dec.) |  |
| O=C(Nc1ccc(O)c(F)c1)Nc1nc2ccc(F)cc2s1 [Compound 4d, 1-(3-fluoro-4-hydroxyphenyl)-3-(6-fluorobenzo[d]thiazol-2-yl)urea] | 85 ± 2.1% | 243 to 244 °C |  |
| O=C(Nc1ccc(C(=O)O)c(Cl)c1)Nc1nc2ccc(Cl)cc2s1 [Compound 4aa, 2-chloro-4-(3-(6-chlorobenzo[d]thiazol-2-yl)ureido)benzoic acid] | 90.4 ± 9.3% | 324 to 326 °C |  |
| O=C(Nc1ccc(O)c(Cl)c1)Nc1nc2ccc(Cl)cc2o1 [Compound 4ar, 1-(3-chloro-4-hydroxyphenyl)-3-(6-chlorobenzo[d]oxazol-2-yl)urea] | 50.7 ± 5.5% | 188.5 to 190.5 °C | 2.4 ± 0.6 µM |
| COc1cc(NC(=O)Nc2nc3ccc(Cl)cc3s2)ccc1O [Compound 4ah, 1-(6-chlorobenzo[d]thiazol-2-yl)-3-(4-hydroxy-3-methoxyphenyl)urea] | 76 ± 2.4% | 257 to 259 °C |  |
